According to the supplement of paper PMC6045584:
± gives the standard deviation of the averaged measurements.

How the values were obtained:
[1] = compound: NS(=O)(=O)OC[C@@H]1C[C@@H](n2ccc3c(N[C@H]4CCc5ccccc54)ncnc32)C[C@@H]1O [MLN-4924]; assay: surviving fraction relative to DMSO-only wells; higher = less growth inhibition; conditions: exposure time: 5 days
Procedure, shortened: (§1)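 Viability was determined by CellTiter-Glo luminescence, expressed as surviving fraction normalised to the median of DMSO-only wells. The cells were log-phase tumour cell lines seeded at 250–500 per well in 384-well plates and, after 24 hours, exposed continuously for five days to inhibitors at 0.5, 1, 5, 10, 50, 100, 500 and 1000 nM. Three screens per line were run, keeping only lines with replicate Pearson r >0.7 and median Z' >0.3.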

[2] = compound: COc1cc2c(Oc3ccc(NC(=O)C4(C(=O)Nc5ccc(F)cc5)CC4)cc3F)ccnc2cc1OCCCN1CCOCC1 [FORETINIB]; assay: as above; conditions: exposure time: 5 days
Procedure, shortened: as §1

DU4475 BREAST
surviving fraction ([1]; 0.5 nM): 0.976 ± 0.098 | surviving fraction ([1]; 1 nM): 1.02 ± 0.028 | surviving fraction ([1]; 5 nM): 0.894 ± 0.049 | surviving fraction ([1]; 10 nM): 0.683 ± 0.11 | surviving fraction ([1]; 50 nM): 0.033 ± 0.001 | surviving fraction ([1]; 100 nM): 0.0267 ± 0.0042 | surviving fraction ([1]; 500 nM): 0.0323 ± 0.0011 | surviving fraction ([1]; 1000 nM): 0.0333 ± 0.0011 | surviving fraction ([2]; 0.5 nM): 0.942 ± 0.16 | surviving fraction ([2]; 1 nM): 1.03 ± 0.019 | surviving fraction ([2]; 5 nM): 0.931 ± 0.066 | surviving fraction ([2]; 10 nM): 0.971 ± 0.19 | surviving fraction ([2]; 50 nM): 0.979 ± 0.11 | surviving fraction ([2]; 100 nM): 0.821 ± 0.13 | surviving fraction ([2]; 500 nM): 0.715 ± 0.031 | surviving fraction ([2]; 1000 nM): 0.644 ± 0.043

H23 LUNG
surviving fraction ([1]; 0.5 nM): 0.992 ± 0.05 | surviving fraction ([1]; 1 nM): 1.01 ± 0.053 | surviving fraction ([1]; 5 nM): 1.07 ± 0.044 | surviving fraction ([1]; 10 nM): 1.09 ± 0.049 | surviving fraction ([1]; 50 nM): 1.18 ± 0.083 | surviving fraction ([1]; 100 nM): 0.886 ± 0.073 | surviving fraction ([1]; 500 nM): 0.14 ± 0.01 | surviving fraction ([1]; 1000 nM): 0.082 ± 0.004 | surviving fraction ([2]; 0.5 nM): 1.04 ± 0.058 | surviving fraction ([2]; 1 nM): 1.07 ± 0.073 | surviving fraction ([2]; 5 nM): 1.06 ± 0.073 | surviving fraction ([2]; 10 nM): 0.982 ± 0.035 | surviving fraction ([2]; 50 nM): 0.976 ± 0.079 | surviving fraction ([2]; 100 nM): 0.986 ± 0.08 | surviving fraction ([2]; 500 nM): 0.889 ± 0.024 | surviving fraction ([2]; 1000 nM): 0.388 ± 0.015

HCC78 LUNG
surviving fraction ([1]; 0.5 nM): 0.845 ± 0.11 | surviving fraction ([1]; 1 nM): 0.588 ± 0.064 | surviving fraction ([1]; 5 nM): 0.722 ± 0.17 | surviving fraction ([1]; 10 nM): 0.808 ± 0.15 | surviving fraction ([1]; 50 nM): 0.487 ± 0.067 | surviving fraction ([1]; 100 nM): 0.27 ± 0.1 | surviving fraction ([1]; 500 nM): 0.0393 ± 0.011 | surviving fraction ([1]; 1000 nM): 0.0343 ± 0.0078 | surviving fraction ([2]; 0.5 nM): 0.779 ± 0.1 | surviving fraction ([2]; 1 nM): 0.92 ± 0.14 | surviving fraction ([2]; 5 nM): 0.89 ± 0.12 | surviving fraction ([2]; 10 nM): 0.752 ± 0.091 | surviving fraction ([2]; 50 nM): 0.257 ± 0.06 | surviving fraction ([2]; 100 nM): 0.259 ± 0.039 | surviving fraction ([2]; 500 nM): 0.179 ± 0.025 | surviving fraction ([2]; 1000 nM): 0.0403 ± 0.0068

HCC202 BREAST
surviving fraction ([1]; 0.5 nM): 1.14 ± 0.32 | surviving fraction ([1]; 1 nM): 1.07 ± 0.26 | surviving fraction ([1]; 5 nM): 1.24 ± 0.12 | surviving fraction ([1]; 10 nM): 1.131 ± 0.0092 | surviving fraction ([1]; 50 nM): 0.731 ± 0.22 | surviving fraction ([1]; 100 nM): 0.557 ± 0.22 | surviving fraction ([1]; 500 nM): 0.299 ± 0.066 | surviving fraction ([1]; 1000 nM): 0.265 ± 0.015 | surviving fraction ([2]; 0.5 nM): 1.04 ± 0.11 | surviving fraction ([2]; 1 nM): 1.33 ± 0.14 | surviving fraction ([2]; 5 nM): 1.24 ± 0.37 | surviving fraction ([2]; 10 nM): 1.02 ± 0.033 | surviving fraction ([2]; 50 nM): 1.48 ± 0.2 | surviving fraction ([2]; 100 nM): 1.34 ± 0.33 | surviving fraction ([2]; 500 nM): 1.18 ± 0.15 | surviving fraction ([2]; 1000 nM): 0.995 ± 0.23

HCC1395 BREAST
surviving fraction ([1]; 0.5 nM): 1.07 ± 0.042 | surviving fraction ([1]; 1 nM): 1.13 ± 0.05 | surviving fraction ([1]; 5 nM): 1.01 ± 0.14 | surviving fraction ([1]; 10 nM): 1.15 ± 0.14 | surviving fraction ([1]; 50 nM): 1.1 ± 0.014 | surviving fraction ([1]; 100 nM): 1.083 ± 0.008 | surviving fraction ([1]; 500 nM): 0.989 ± 0.1 | surviving fraction ([1]; 1000 nM): 1.01 ± 0.053 | surviving fraction ([2]; 0.5 nM): 1.07 ± 0.09 | surviving fraction ([2]; 1 nM): 1.08 ± 0.11 | surviving fraction ([2]; 5 nM): 1.26 ± 0.076 | surviving fraction ([2]; 10 nM): 1.17 ± 0.048 | surviving fraction ([2]; 50 nM): 1.09 ± 0.083 | surviving fraction ([2]; 100 nM): 1.02 ± 0.034 | surviving fraction ([2]; 500 nM): 0.939 ± 0.063 | surviving fraction ([2]; 1000 nM): 0.796 ± 0.085

HCC1806 BREAST
surviving fraction ([1]; 0.5 nM): 0.949 ± 0.094 | surviving fraction ([1]; 1 nM): 1.02 ± 0.089 | surviving fraction ([1]; 5 nM): 0.907 ± 0.074 | surviving fraction ([1]; 10 nM): 0.395 ± 0.02 | surviving fraction ([1]; 50 nM): 0.0957 ± 0.0076 | surviving fraction ([1]; 100 nM): 0.0527 ± 0.0076 | surviving fraction ([1]; 500 nM): 0.031 | surviving fraction ([1]; 1000 nM): 0.029 ± 0.0017 | surviving fraction ([2]; 0.5 nM): 1.13 ± 0.071 | surviving fraction ([2]; 1 nM): 0.942 ± 0.035 | surviving fraction ([2]; 5 nM): 1.21 ± 0.031 | surviving fraction ([2]; 10 nM): 1.12 ± 0.038 | surviving fraction ([2]; 50 nM): 1.16 ± 0.11 | surviving fraction ([2]; 100 nM): 1.12 ± 0.056 | surviving fraction ([2]; 500 nM): 0.468 ± 0.014 | surviving fraction ([2]; 1000 nM): 0.452 ± 0.033

HCC1954 BREAST
surviving fraction ([1]; 0.5 nM): 1.12 ± 0.082 | surviving fraction ([1]; 1 nM): 1.13 ± 0.045 | surviving fraction ([1]; 5 nM): 1.09 ± 0.049 | surviving fraction ([1]; 10 nM): 1.17 ± 0.3 | surviving fraction ([1]; 50 nM): 0.656 ± 0.075 | surviving fraction ([1]; 100 nM): 0.518 ± 0.021 | surviving fraction ([1]; 500 nM): 0.1795 ± 0.0014 | surviving fraction ([1]; 1000 nM): 0.112 ± 0.016 | surviving fraction ([2]; 0.5 nM): 0.975 ± 0.071 | surviving fraction ([2]; 1 nM): 1.16 ± 0.25 | surviving fraction ([2]; 5 nM): 1.09 ± 0.08 | surviving fraction ([2]; 10 nM): 1.14 ± 0.1 | surviving fraction ([2]; 50 nM): 0.965 ± 0.14 | surviving fraction ([2]; 100 nM): 0.903 ± 0.05 | surviving fraction ([2]; 500 nM): 0.6953 ± 0.006 | surviving fraction ([2]; 1000 nM): 0.418 ± 0.068

HCT15 LARGE INTESTINE
surviving fraction ([1]; 0.5 nM): 1.06 ± 0.015 | surviving fraction ([1]; 1 nM): 1.05 ± 0.095 | surviving fraction ([1]; 5 nM): 1.07 ± 0.042 | surviving fraction ([1]; 10 nM): 1.08 ± 0.065 | surviving fraction ([1]; 50 nM): 0.966 ± 0.11 | surviving fraction ([1]; 100 nM): 0.906 ± 0.11 | surviving fraction ([1]; 500 nM): 0.299 ± 0.065 | surviving fraction ([1]; 1000 nM): 0.166 ± 0.041 | surviving fraction ([2]; 0.5 nM): 1.08 ± 0.1 | surviving fraction ([2]; 1 nM): 1.09 ± 0.084 | surviving fraction ([2]; 5 nM): 1.06 ± 0.09 | surviving fraction ([2]; 10 nM): 1.05 ± 0.073 | surviving fraction ([2]; 50 nM): 1.07 ± 0.091 | surviving fraction ([2]; 100 nM): 1.11 ± 0.097 | surviving fraction ([2]; 500 nM): 0.217 ± 0.046 | surviving fraction ([2]; 1000 nM): 0.203 ± 0.042
